≈ marks a conversion by molar mass, not a printed value. Where “and” joins values, the source holds several entries; their conditions need not be identical. Identical values can stand only once. Like-named read-outs stand apart in the source and are kept apart here.
Assays:
HIV-1 (strain LAV) = test: Inhibition of HIV replication in human PBM cells, reverse transcriptase assay (Table 3)
Friend (EY-10) = test: Median effective antiviral concentration against Friend virus (Table 5); assay type: cell-based, murine retrovirus; conditions: unidentified retrovirus, in Mus musculus
From the text: (§1) A comparison of the differences in median effective an tiviral concentrations between human, non-human primate, and murine retroviruses is shown in Table 5. […] A further comparison of the activity of several nucleoside analogues, including CS-87, against HIV-1 and SIV in human PBM cells is shown in FIG. 6. The effect of delayed treatment with AZT, CS-87 or CS-91 on the replication of HIV-1 and SIV in human PBM cells is shown in FIGS. 7a, b, and c.

HIV-1 (Strain RF-II) = test: Antiviral activity against HIV-1 in HeLa-T4 cells (Table 4); assay type: cell-based; conditions: Human immunodeficiency virus 1, HeLaT4, HIV-1
Experimental: Evaluation in Hela-T4 cells infected with HIV-1 (Strain RF-II)
HeLa-T4 cells (described in Cell 47: 333, 1986) are maintained in Dulbecco's Modified Eagle medium containing 10% inactivated fetal calf serum, penicillin (100 U/ml) and streptomycin (100 μg/ml), and the antibiotic G418 (1 mg/ml). The cells are seeded onto a 96-well plate (2×10^4 cells/well per 0.1 ml), and two days later, the supernatant is removed and the virus added. After adsorption for 45 minutes, the inoculum is removed and the cells washed with phosphate-buffered saline (pH 7.2). The compounds at different concentration are then added in maintenance medium (containing 2% serum). […] The cells are fixed with a mixture of 5% glacial acetic acid/95% Ethanol for 15 minutes, and then stained with Giemsa (20% in PSB) for 4 hours. The plates are then washed and dried. The foci are then enumerated with a dissecting stereomicroscope.

HIV = conditions: in vitro
SIV (SMM) = test: Median effective antiviral concentration against SIV (Table 5); assay type: cell-based, simian immunodeficiency virus; conditions: Simian immunodeficiency virus
From the text: as §1

HIV-1 = test: microbe, parasite or virus in culture; conditions: Human immunodeficiency virus 1, PBMC, read-out: PBM (EC50)
[1] = tested on: Mouse ecotropic (Cas-Br-M); test: Median effective antiviral concentration against mouse ecotropic virus (Table 5); assay type: cell-based, murine retrovirus; conditions: unidentified retrovirus
From the text: as §1

HIV p24 and p41 = test: Inhibition of HIV replication in human PBM cells, western blot analysis (Table 3)
HIV-1 and SIV = test: Effect of delayed treatment on replication of HIV-1 and SIV in human PBM cells (FIG. 7); assay type: cell-based, HIV-1; SIV
From the text: as §1

NIH Swiss mice = conditions: oral 0.5 mg/ml ad libitum, 67 days
HIV (LAV-1) = test: Median effective antiviral concentration against HIV (Table 5); assay type: cell-based; conditions: Human immunodeficiency virus 1
uninfected cells = conditions: CS-87 compared with AZT
HIV-1 p24 = test: Inhibition of HIV replication in human PBM cells, p24 RIA (Table 3)
Friend Leukemia virus = conditions: Ostertag et al.; Krieg et al.; cited from earlier work
HIV-1 (Strain HTLV-III) = test: Antiviral activity against HIV-1 in ATH-8 cells (Table 4); conditions: Human immunodeficiency virus 1, 240 h, read-out: ATH-8 (MIC)
[2] = preliminary results, Yarchoan et al. 1986; cited from earlier work
[3] = Effect on weight of uninfected BALB/c mice (FIG. 3); assay type: in vivo, mouse; conditions: compared with each other and control
Host cell α-DNA pol = molecular target: T1, Host cell α-DNA pol (Homo sapiens, UniProt P09884); test: Effect of 5'-triphosphates on alpha DNA polymerase (Table 6); assay type: biochemical
T1 sequence (P09884 1-1462): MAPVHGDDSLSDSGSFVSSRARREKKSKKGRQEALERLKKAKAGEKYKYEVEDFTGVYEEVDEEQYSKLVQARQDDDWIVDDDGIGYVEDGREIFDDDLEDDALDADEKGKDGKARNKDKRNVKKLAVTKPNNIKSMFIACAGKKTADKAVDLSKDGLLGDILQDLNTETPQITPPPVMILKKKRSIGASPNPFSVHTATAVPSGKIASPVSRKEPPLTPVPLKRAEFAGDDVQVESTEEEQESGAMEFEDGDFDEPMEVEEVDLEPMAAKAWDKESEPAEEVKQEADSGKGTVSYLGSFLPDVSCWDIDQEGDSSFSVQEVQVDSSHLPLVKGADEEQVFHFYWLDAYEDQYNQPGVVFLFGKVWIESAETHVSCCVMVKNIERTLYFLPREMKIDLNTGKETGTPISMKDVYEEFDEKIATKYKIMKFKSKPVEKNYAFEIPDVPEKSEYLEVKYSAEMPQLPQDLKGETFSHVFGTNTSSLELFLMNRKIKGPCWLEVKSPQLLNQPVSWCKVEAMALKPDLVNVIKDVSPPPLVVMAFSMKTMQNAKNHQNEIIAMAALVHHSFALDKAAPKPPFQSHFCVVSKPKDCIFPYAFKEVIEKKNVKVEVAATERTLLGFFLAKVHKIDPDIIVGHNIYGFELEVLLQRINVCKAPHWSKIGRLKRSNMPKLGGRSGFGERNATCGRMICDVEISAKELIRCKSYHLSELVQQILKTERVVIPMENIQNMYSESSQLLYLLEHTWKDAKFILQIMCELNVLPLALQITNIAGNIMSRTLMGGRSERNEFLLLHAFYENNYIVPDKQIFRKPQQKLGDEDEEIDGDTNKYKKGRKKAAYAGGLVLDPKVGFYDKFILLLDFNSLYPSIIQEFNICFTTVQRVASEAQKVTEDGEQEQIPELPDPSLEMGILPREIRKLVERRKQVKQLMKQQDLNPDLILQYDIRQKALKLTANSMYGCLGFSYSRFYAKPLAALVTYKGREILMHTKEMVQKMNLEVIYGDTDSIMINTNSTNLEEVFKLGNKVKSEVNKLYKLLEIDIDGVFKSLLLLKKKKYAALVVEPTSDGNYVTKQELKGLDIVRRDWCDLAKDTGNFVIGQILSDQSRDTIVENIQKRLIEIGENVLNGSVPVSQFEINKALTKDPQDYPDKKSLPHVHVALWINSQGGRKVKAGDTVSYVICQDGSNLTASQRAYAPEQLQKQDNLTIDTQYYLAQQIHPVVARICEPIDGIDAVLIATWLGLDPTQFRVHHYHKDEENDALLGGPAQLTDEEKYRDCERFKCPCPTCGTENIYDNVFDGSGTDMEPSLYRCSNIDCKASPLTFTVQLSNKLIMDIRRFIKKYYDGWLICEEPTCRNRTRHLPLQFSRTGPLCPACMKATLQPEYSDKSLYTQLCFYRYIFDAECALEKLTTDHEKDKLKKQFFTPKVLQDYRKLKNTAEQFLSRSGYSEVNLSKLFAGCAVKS

HIV RT = molecular target: T2, HIV RT (Human immunodeficiency virus type 1 group M subtype B, UniProt P03367); test: Effect of 5'-triphosphates on HIV reverse transcriptase (Table 6); assay type: biochemical; conditions: 5'-triphosphate; read-out: HIV RT K1
T2 construct: HIV reverse transcriptase

[4] = Human immunodeficiency virus 1, PBMC, in Homo sapiens, read-out: RT % Inhibition (corrected)
[5] = individual mouse, listed as AzT
[6] = individual mouse, listed as Azt
[7] = Human immunodeficiency virus 1, PBMC, in Homo sapiens, read-out: RIA p24 % Inhibition

In the case of `Cc1cn([C@H]2C[C@H](N=[N+]=[N-])[C@@H](CO)O2)c(=O)[nH]c1=O` [AZT, 3'-azido-3'-deoxythymidine, reference compound], the “RT: Mean DPM/ml on day 5 (3 day old cells)” value (shortened to “RT: Mean DPM/ml”) (HIV-1 (strain LAV); 0.01 μM) is reported as 65,208 DPM/ml, the “RT: Mean DPM/ml” value (HIV-1 (strain LAV); 0.1 μM) is reported as 6,144 DPM/ml and the “RT: Mean DPM/ml” value (HIV-1 (strain LAV); 1 μM) is reported as 2,304 DPM/ml. The inhibition at 0.01 µM (HIV-1 (strain LAV); [4]) was 89.8%, the inhibition at 0.1 µM (HIV-1 (strain LAV); [4]) was 99.1% and the inhibition at 1 µM (HIV-1 (strain LAV); [4]) was 99.7%. The EC50 (Friend (EY-10)) was 0.004 µM, the EC50 (HIV-1 (Strain RF-II)) was 0.34 µM and the “activity against HIV, in words” value (HIV) was “somewhat more active than CS-87”. The EC50 (SIV (SMM)) was 0.002 µM, the EC50 (HIV-1) was 0.002 µM and the EC50 [1] was 0.007 µM. The “Western blot p24 (band intensity)” value (HIV p24 and p41; 0.01 μM) was 2+, the “Western blot p41 (band intensity)” value (HIV p24 and p41; 0.01 μM) was 1+ and the “Western blot p24 (band intensity)” value (HIV p24 and p41; 0.1 μM) was 0. For the same molecule, the “Western blot p41 (band intensity)” value (HIV p24 and p41; 0.1 μM) was 0, the “Western blot p24 (band intensity)” value (HIV p24 and p41; 1 μM) was 0 and the “Western blot p41 (band intensity)” value (HIV p24 and p41; 1 μM) was 0. For the same molecule, the “effect of delayed treatment on replication of HIV-1 and SIV” value (HIV-1 and SIV) was “time of administration is critical to the effectiveness of the treatment”, the Hct (NIH Swiss mice; Mean of group) was 28.7% and the Hgb (NIH Swiss mice; Mean of group) was 9.2 g/dL. The MCH (NIH Swiss mice; Mean of group) was 21.4 pg, the MCHC (NIH Swiss mice; Mean of group) was 32.0 g/dL and the MCV (NIH Swiss mice; Mean of group) was 66.8 fL. For the same molecule, the PLT (NIH Swiss mice; Mean of group) was 1.2 × 10^6, the RBC (NIH Swiss mice; Mean of group) was 4.3 × 10^6 and the RDW (NIH Swiss mice; Mean of group) was 23.4%. For the same molecule, the WBC (NIH Swiss mice; Mean of group) was 6.6 × 10^3, the Hct (NIH Swiss mice; [5]) was 28.4% and 35.0% and the Hgb (NIH Swiss mice; [5]) was 9.1 g/dL and 11.0 g/dL. For the same molecule, the MCH (NIH Swiss mice; [5]) was 22.1 pg and 21.2 pg, the MCHC (NIH Swiss mice; [5]) was 32.1 g/dL and 31.4 g/dL and the MCV (NIH Swiss mice; [5]) was 68.9 fL and 67.4 fL. For the same molecule, the PLT (NIH Swiss mice; [5]) was 1.076 × 10^6 and 1.292 × 10^6, the RBC (NIH Swiss mice; [5]) was 4.1 × 10^6 and 5.2 × 10^6 and the RDW (NIH Swiss mice; [5]) was 29.9% and 17.8%. The WBC (NIH Swiss mice; [5]) was 4.5 × 10^3 and 8.8 × 10^3, the Hct (NIH Swiss mice; [6]) was 21.1% and 30.1% and the Hgb (NIH Swiss mice; [6]) was 6.9 g/dL and 9.6 g/dL. The MCH (NIH Swiss mice; [6]) was 20.5 pg and 21.6 pg, the MCHC (NIH Swiss mice; [6]) was 32.6 g/dL and 31.9 g/dL and the MCV (NIH Swiss mice; [6]) was 62.9 fL and 67.8 fL. The PLT (NIH Swiss mice; [6]) was 1.187 × 10^6 and 1.112 × 10^6, the RBC (NIH Swiss mice; [6]) was 3.4 × 10^6 and 4.4 × 10^6 and the RDW (NIH Swiss mice; [6]) was 24.6% and 21.3%. For the same molecule, the WBC (NIH Swiss mice; [6]) was 5.2 × 10^3 and 7.9 × 10^3, the EC50 (HIV (LAV-1)) was 0.002 µM and the “cytotoxicity / toxicity in words” value (uninfected cells) was “much greater toxicity”. For the same molecule, the “RIA p24 (Dupont kit)” value (HIV-1 p24; 0.01 μM) was 4.39 ng/mL, the “RIA p24 (Dupont kit)” value (HIV-1 p24; 0.1 μM) was 0.51 ng/mL and the “RIA p24 (Dupont kit)” value (HIV-1 p24; 1 μM) was 0.18 ng/mL. For the same molecule, the inhibition at 0.01 µM (HIV-1 p24; [7]) was 81.8%, the inhibition at 0.1 µM (HIV-1 p24; [7]) was 97.9% and the inhibition at 1 µM (HIV-1 p24; [7]) was 99.3%. The “activity against Friend Leukemia virus” value (Friend Leukemia virus) was “activity against Friend Leukemia virus”, the MIC (HIV-1 (Strain HTLV-III)) was 0.32 µM (≈ 0.0855 µg/mL) and the “toxicity in a clinical setting” value [2] was “exhibits toxicity”.

With `CCc1cn([C@H]2C[C@H](N=[N+]=[N-])[C@@H](CO)O2)c(=O)[nH]c1=O` [CS-85, 3'-azido-2',3'-dideoxy-5-ethyl-uridine, reference compound] the “effect on weight of uninfected BALB/c mice” value [3] was “no significant difference”.

For `[N-]=[N+]=N[C@H]1C[C@H](n2ccc(=O)[nH]c2=O)O[C@@H]1COP(=O)(O)OP(=O)(O)OP(=O)(O)O` [CS-87-TP, 3'-azido-2',3'-dideoxyuridine triphosphate], the Ki (Host cell α-DNA pol; 5'-triphosphate, read-out: Host cell α-DNA pol K1) was 1200 µM, the “Ratio: Cellular/HIV” value (Host cell α-DNA pol; K1 host cell α-DNA pol / K1 HIV RT) was 133,333 and the Ki (HIV RT) was 0.009 µM.
